Source: patent US20090311217A1, “3-SUBSTITUTED-1H-INDOLE COMPOUNDS, THEIR USE AS MTOR KINASE AND PI3 KINASE INHIBITORS, AND THEIR SYNTHESES” (priority 2008, published 2009)
Like-named read-outs stand apart in the source and are kept apart here.

Experiments:
Format in all cases: biochemical
[1] = molecular target: T1, human TOR (Homo sapiens, UniProt P42345); experiment: mTOR enzyme assay (DELFIA, His6-S6K substrate); details: read-out: mTOR Kinase Avg. IC50
T1 construct: FLAG

[2] = molecular target: PI3K-alpha (Homo sapiens, UniProt P42336); experiment: PI3K-alpha fluorescence polarization assay
[3] = molecular target: PI3K-gamma (Homo sapiens, UniProt P48736); experiment: PI3K-gamma fluorescence polarization assay; details: PI3Kγ Avg. IC50
How it was run: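 Enzyme 5 ng; substrate diC8-PI(4,5)P2 2.5 μM; ATP 25 μM; 5 mM HEPES pH 7, 2.5 mM MgCl2; DMSO ≤2%; 1 h, 25° C. Quench 10 mM EDTA. Detect with GRP1 PH domain 100 nM + TMR-IP4 probe 5 nM by polarization.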

[4] = molecular target: PI3K-delta (Homo sapiens, UniProt O00329); experiment: PI3K-delta fluorescence polarization assay; details: read-out: PI3Kδ Avg. IC50
[5] = molecular target: PI3K-beta (Homo sapiens, UniProt P42338); experiment: PI3K-beta fluorescence polarization assay; details: read-out: PI3Kβ Avg. IC50
Experimental: PI3K-Alpha, PI3K-Beta, PI3K-Gamma, and PI3K-delta Fluorescence Polarization Assay Protocols
PI3-Kinase reactions were performed in 5 mM HEPES, pH 7, 2.5 mM MgCl2, and 25 μM ATP, with diC8-PI(4,5)P2 (Echelon, Salt Lake City Utah) as substrate. Nunc 384-well black polypropylene fluorescent plates were used for PI3K assays. Reactions were quenched by the addition of EDTA to a final concentration of 10 mM. Final reaction volumes were 10 μl. For evaluation of PI3K inhibitors, 5 ng of enzyme (PI3K-alpha, beta, gamma, or delta) and 2.5 μM of substrate was used per […] reaction volume, and inhibitor concentrations ranged from 100 μM to 20 μM; the final level of DMSO in reactions never exceeded 2%. Reactions were allowed to proceed for one hour at 25° C. After 1 hour, GST-tagged GRP1 (general receptor for phosphoinositides) PH domain fusion protein was added to a final concentration of 100 nM, and BODIPY-TMRI(1,3,4,5)P4 (Echelon) was also added to a final concentration of 5 nM. Final sample volumes were 25 μl with a final DMSO concentration of 0.8%. Assay Plates were read on Perkin-Elmer Envision plate readers with appropriate filters for Tamra [BODIPY-TMRI(1,3,4,5)P4]. Data obtained were used to calculate enzymatic activity and enzyme inhibition by inhibitor compounds.

Sequence of PI3K-delta (O00329 whole entry, species assumed): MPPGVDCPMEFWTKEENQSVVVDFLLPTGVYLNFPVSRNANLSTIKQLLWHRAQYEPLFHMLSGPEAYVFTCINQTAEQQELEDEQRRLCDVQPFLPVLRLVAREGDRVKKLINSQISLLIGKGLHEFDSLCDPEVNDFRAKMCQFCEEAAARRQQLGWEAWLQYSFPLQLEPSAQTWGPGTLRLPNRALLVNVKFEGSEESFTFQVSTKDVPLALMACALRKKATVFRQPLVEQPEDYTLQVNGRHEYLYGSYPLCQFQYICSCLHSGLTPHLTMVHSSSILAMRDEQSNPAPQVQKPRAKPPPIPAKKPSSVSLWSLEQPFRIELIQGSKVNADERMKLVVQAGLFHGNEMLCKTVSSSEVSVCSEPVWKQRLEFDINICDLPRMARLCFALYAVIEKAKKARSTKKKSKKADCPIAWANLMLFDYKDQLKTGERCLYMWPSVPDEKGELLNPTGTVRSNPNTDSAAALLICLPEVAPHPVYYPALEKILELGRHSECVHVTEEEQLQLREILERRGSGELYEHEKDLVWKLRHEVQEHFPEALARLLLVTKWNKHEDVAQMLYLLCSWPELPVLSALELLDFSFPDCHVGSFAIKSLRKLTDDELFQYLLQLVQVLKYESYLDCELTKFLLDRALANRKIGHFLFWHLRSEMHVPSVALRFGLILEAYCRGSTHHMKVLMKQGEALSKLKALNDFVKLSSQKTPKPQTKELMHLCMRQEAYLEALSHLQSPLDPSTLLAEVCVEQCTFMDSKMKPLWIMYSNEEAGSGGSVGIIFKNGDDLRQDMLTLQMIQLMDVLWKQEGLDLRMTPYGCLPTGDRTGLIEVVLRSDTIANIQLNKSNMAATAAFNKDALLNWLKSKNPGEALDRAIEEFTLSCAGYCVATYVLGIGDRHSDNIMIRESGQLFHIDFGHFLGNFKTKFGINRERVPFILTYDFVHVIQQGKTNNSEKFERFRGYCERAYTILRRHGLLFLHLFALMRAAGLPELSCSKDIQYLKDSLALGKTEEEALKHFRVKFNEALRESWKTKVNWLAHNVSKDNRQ
Sequence of PI3K-delta (P27986 whole entry partner, species assumed): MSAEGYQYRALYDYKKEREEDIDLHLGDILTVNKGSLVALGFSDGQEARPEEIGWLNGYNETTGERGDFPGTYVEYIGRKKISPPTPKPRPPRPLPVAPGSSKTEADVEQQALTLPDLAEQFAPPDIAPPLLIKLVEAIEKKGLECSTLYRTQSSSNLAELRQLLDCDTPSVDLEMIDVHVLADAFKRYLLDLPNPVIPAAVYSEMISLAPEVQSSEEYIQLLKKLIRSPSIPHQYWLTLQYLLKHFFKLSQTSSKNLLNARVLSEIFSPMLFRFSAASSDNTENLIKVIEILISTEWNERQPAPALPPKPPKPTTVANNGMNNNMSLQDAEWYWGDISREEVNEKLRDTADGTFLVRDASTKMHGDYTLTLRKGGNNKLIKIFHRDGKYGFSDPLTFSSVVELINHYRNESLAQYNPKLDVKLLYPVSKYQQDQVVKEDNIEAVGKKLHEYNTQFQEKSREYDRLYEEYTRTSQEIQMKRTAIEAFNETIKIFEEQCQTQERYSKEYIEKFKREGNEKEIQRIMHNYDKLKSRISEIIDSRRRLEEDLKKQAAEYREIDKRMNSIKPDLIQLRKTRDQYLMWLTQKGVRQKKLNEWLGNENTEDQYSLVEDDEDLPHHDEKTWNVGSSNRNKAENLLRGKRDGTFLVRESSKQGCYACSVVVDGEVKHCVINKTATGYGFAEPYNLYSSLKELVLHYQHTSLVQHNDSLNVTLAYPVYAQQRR
Sequence of PI3K-beta (P42338 whole entry, species assumed): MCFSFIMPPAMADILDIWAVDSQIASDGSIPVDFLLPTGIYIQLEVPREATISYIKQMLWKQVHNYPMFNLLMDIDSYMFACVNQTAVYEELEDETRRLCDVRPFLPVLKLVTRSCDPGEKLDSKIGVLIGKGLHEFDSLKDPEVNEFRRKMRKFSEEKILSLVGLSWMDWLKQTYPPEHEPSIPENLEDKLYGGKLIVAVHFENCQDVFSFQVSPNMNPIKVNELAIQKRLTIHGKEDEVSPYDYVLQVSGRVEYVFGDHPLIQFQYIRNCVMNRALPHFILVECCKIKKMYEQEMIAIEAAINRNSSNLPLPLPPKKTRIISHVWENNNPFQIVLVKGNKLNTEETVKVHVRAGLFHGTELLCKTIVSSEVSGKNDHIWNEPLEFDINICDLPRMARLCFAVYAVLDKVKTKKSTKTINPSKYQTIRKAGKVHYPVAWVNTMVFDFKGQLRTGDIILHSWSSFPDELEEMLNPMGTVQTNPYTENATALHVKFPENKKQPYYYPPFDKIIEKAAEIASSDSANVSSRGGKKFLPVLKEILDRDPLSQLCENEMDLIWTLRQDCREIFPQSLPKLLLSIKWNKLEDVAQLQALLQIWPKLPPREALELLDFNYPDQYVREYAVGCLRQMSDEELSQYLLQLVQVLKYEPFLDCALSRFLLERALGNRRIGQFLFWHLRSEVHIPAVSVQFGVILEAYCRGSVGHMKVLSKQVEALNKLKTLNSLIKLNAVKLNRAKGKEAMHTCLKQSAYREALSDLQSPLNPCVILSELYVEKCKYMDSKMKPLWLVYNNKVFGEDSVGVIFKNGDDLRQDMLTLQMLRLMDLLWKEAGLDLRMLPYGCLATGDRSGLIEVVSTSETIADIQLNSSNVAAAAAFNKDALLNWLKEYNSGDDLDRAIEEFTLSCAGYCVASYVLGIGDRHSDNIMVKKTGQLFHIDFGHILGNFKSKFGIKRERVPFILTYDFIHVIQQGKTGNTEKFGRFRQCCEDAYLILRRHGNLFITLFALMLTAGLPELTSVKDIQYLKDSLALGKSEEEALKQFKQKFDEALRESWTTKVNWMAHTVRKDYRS
Sequence of PI3K-beta (P27986 whole entry partner, species assumed): as the sequence (P27986 whole entry partner, species assumed) above
Sequence of PI3K-gamma (P48736 whole entry, species assumed, the tested form may be a part): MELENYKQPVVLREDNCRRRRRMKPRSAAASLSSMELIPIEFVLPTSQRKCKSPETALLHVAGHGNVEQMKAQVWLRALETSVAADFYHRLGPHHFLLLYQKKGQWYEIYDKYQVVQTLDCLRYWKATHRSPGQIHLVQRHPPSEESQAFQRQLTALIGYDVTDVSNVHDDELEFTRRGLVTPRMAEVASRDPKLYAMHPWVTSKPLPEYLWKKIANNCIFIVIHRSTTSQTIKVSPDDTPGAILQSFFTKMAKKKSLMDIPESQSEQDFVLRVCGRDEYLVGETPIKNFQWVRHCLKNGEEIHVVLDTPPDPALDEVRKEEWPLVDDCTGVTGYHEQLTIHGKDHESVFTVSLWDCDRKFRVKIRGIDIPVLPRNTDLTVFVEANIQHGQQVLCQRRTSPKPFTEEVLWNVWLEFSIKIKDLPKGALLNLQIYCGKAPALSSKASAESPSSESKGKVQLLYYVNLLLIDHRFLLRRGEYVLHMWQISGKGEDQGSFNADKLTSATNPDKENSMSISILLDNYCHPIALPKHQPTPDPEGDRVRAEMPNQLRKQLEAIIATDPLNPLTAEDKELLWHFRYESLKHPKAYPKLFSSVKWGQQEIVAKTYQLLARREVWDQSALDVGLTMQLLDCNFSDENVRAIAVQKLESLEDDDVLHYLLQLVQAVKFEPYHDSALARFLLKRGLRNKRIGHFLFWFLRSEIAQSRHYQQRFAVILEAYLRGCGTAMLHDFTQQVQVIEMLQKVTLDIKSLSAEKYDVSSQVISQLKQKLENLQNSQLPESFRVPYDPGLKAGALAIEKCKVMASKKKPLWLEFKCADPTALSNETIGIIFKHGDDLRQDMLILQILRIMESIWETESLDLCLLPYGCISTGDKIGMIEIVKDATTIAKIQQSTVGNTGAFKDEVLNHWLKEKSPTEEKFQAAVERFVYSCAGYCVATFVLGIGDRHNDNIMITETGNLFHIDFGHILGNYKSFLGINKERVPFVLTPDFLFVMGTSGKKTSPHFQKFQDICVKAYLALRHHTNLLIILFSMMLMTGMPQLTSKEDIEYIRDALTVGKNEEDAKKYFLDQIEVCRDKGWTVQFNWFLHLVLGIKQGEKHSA
Sequence of PI3K-alpha (P42336 whole entry, species assumed): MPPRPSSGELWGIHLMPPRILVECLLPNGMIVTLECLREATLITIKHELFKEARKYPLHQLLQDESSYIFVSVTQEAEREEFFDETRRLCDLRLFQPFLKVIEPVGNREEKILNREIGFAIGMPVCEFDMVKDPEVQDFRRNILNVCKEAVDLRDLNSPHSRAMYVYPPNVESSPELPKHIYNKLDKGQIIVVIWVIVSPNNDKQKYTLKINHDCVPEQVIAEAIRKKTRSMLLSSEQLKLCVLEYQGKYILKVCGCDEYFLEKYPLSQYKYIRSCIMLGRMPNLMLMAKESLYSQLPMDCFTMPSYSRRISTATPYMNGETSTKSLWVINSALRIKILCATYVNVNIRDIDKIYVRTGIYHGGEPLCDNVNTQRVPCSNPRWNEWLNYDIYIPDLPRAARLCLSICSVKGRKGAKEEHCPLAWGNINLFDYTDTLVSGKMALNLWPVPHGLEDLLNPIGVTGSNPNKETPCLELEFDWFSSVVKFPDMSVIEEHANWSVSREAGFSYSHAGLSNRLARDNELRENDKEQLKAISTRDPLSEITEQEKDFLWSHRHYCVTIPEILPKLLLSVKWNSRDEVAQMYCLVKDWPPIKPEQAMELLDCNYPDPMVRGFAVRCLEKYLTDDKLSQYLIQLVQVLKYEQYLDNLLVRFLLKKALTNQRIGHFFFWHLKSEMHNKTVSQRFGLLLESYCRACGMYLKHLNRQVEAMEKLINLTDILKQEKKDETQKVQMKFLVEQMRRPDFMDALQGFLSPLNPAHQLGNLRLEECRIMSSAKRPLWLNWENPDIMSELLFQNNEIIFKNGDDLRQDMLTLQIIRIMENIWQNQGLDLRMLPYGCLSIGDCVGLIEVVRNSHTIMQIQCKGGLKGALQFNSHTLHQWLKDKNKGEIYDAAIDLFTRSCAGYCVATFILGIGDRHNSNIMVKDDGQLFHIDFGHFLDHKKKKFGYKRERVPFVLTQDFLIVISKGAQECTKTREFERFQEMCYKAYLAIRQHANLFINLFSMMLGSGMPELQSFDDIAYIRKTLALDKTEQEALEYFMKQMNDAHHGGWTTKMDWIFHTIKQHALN
Sequence of PI3K-alpha (P27986 whole entry partner, species assumed): as the sequence (P27986 whole entry partner, species assumed) above

| SMILES | IC50 [1] [nM] | IC50 ([2]; read-out: PI3Kα Avg. IC50) [nM] | IC50 [3] [nM] | IC50 [4] [nM] | IC50 [5] [nM] | IC50 ([2]; PI3Kα Avg. IC50) [nM] |
| --- | --- | --- | --- | --- | --- | --- |
| COc1ccc2c(c1)c(/C=C1\Oc3cc(O)cc(O)c3C1=O)cn2CCN1CCC(O)CC1 [Example 319, (2Z)-4,6-Dihydroxy-2-({1-[2-(4-hydroxypiperidin-1-yl)ethyl]-5-methoxy-1H-indol-3-yl}methylene)-1-benzofuran-3(2H)-one] | 265 | 38.3 | 117 | 3.5 | 108 | – |
| COc1ccc2c(c1)c(/C=C1\Oc3cc(O)cc(O)c3C1=O)cn2CCCN(C)C [Example 323, (2Z)-2-({1-[3-(Dimethylamino)propyl]-5-methoxy-1H-indol-3-yl}methylene)-4,6-dihydroxy-1-benzofuran-3(2H)-one] | 930 | 20.5 | 605 | 4 | 120 | – |
| COc1ccc2c(c1)c(C=C1Oc3cc(O)cc(O)c3C1=O)c(C)n2CCCCN1CCC(N(C)C)C1 (stereo not shown) [Example 99, 2-[(1-{4-[3-(dimethylamino)pyrrolidin-1-yl]butyl}-5-methoxy-2-methyl-1H-indol-3-yl)methylene]-4,6-dihydroxy-1-benzofuran-3(2H)-one] | 72.5 | 8.3 | 331 | 2 | 8 | – |
| COc1ccc2c(c1)c(C=C1Oc3cc(O)cc(O)c3C1=O)c(C)n2C [Example 89, 4,6-dihydroxy-2-[(5-methoxy-1,2-dimethyl-1H-indol-3-yl)methylene]-1-benzofuran-3(2H)-one] | 3.5 | – | 54.3 | 8 | 19 | 6.9 |
| COc1ccc2c(c1)c(C=C1Oc3cc(O)cc(O)c3C1=O)c(C)n2CCCCN(C)C [Example 101, 2-({1-[4-(dimethylamino)butyl]-5-methoxy-2-methyl-1H-indol-3-yl}methylene)-4,6-dihydroxy-1-benzofuran-3(2H)-one] | 46 | 5.3 | 377 | 1 | 6.5 | – |
| COc1ccc2c(c1)c(/C=C1\Oc3cc(O)ccc3C1=O)c(C)n2CCCN1CCCC1 [Example 356, (2Z)-6-Hydroxy-2-{[5-methoxy-2-methyl-1-(3-pyrrolidin-1-ylpropyl)-1H-indol-3-yl]methylene}-1-benzofuran-3(2H)-one] | > 800 | 15.5 | 408 | 1.2 | 116 | – |
| COc1ccc2[nH]c(C)c(C=C3Oc4cccc(O)c4C3=O)c2c1 [Example 86, 4-hydroxy-2-[(5-methoxy-2-methyl-1H-indol-3-yl)methylene]-1-benzofuran-3(2H)-one] | 84.8 | 184 | 355 | 47 | 98 | – |
| COc1ccc2c(c1)c(C=C1Oc3cc(O)cc(O)c3C1=O)cn2CCCN(C)C [Example 114, 2-({1-[3-(dimethylamino)propyl]-5-methoxy-1H-indol-3-yl}methylene)-4,6-dihydroxy-1-benzofuran-3(2H)-one] | 2120 | – | 2420 | 11.5 | 221 | 40 |
| COc1ccc2[nH]c(-c3ccccc3)c(C=C3Oc4cc(O)cc(O)c4C3=O)c2c1 [Example 70, 4,6-dihydroxy-2-[(5-methoxy-2-phenyl-1H-indol-3-yl)methylene]-1-benzofuran-3(2H)-one] | < 30 | – | 13.4 | 5.3 | 26 | – |
| COc1ccc2c(c1)c(C=C1Oc3cc(O)cc(O)c3C1=O)c(C)n2CCN1CCN(C)CC1 [Example 108, 4,6-dihydroxy-2-({5-methoxy-2-methyl-1-[2-(4-methylpiperazin-1-yl)ethyl]-1H-indol-3-yl}methylene)-1-benzofuran-3(2H)-one] | < 34 | – | 474 | – | 7.5 | 5 |
| COc1ccc2c(c1)c(/C=C1\Oc3cc(O)cc(O)c3C1=O)c(C)n2CCN1CCN(C)CC1 [Example 309, (2Z)-4,6-Dihydroxy-2-({5-methoxy-2-methyl-1-[2-(4-methylpiperazin-1-yl)ethyl]-1H-indol-3-yl}methylene)-1-benzofuran-3(2H)-one] | < 27 | 2 | 268 | – | 6.5 | – |
| COc1ccc2c(c1)c(C=C1Oc3cc(O)cc(O)c3C1=O)c(C)n2CCCCCl [Example 87, 2-{[1-(4-chlorobutyl)-5-methoxy-2-methyl-1H-indol-3-yl]methylene}-4,6-dihydroxy-1-benzofuran-3(2H)-one] | < 24 | – | 142 | 6 | 72 | – |

The remaining molecules from weak to strong by IC50 [3], led by results:

| IC50 [1] [nM] | IC50 ([2]; read-out: PI3Kα Avg. IC50) [nM] | IC50 [3] [nM] | IC50 [4] [nM] | IC50 [5] [nM] | SMILES | IC50 ([2]; PI3Kα Avg. IC50) [nM] |
| --- | --- | --- | --- | --- | --- | --- |
| > 30000 | 182 | 1470 | 70.3 | 132 | O=C1/C(=C/c2c(-c3ccccc3)[nH]c3ccccc23)Oc2c1ccc(O)c2O [Example 53, (2Z)-6,7-dihydroxy-2-[(2-phenyl-1H-indol-3-yl)methylene]-1-benzofuran-3(2H)-one] | – |
| 300 | 17 | 764 | < 2.5 | 14 | COc1ccc2c(c1)c(/C=C1\Oc3cc(O)cc(O)c3C1=O)c(C1CC1)n2CCN1CCN(C)CC1 [Example 302, (2Z)-2-({2-Cyclopropyl-5-methoxy-1-[2-(4-methylpiperazin-1-yl)ethyl]-1H-indol-3-yl}methylene)-4,6-dihydroxy-1-benzofuran-3(2H)-one] | – |
| 190 | 102 | 544 | 193 | 155 | COc1cc2c(C=C3Oc4cc(O)cc(O)c4C3=O)c(C)[nH]c2cc1C [Example 184, 4,6-dihydroxy-2-[(5-methoxy-2,6-dimethyl-1H-indol-3-yl)methylene]-1-benzofuran-3(2H)-one] | – |
| 55.5 | 12 | 283 | 3 | 12.5 | COc1ccc2c(c1)c(C=C1Oc3cc(O)cc(O)c3C1=O)c(C)n2CCCCN1CCN(CCN2CCOCC2)CC1 [Example 100, 4,6-dihydroxy-2-[(5-methoxy-2-methyl-1-{4-[4-(2-morpholin-4-ylethyl)piperazin-1-yl]butyl}-1H-indol-3-yl)methylene]-1-benzofuran-3(2H)-one] | – |
| > 800 | 11 | 232 | 1.5 | 18.5 | COc1ccc2c(c1)c(/C=C1\Oc3cc(O)cc(F)c3C1=O)c(C)n2CCN1CCN(C)CC1 [Example 359, (2Z)-4-Fluoro-6-hydroxy-2-({5-methoxy-2-methyl-1-[2-(4-methylpiperazin-1-yl)ethyl]-1H-indol-3-yl}methylene)-1-benzofuran-3(2H)-one] | – |
| < 47 | 8.7 | 138 | 0.9 | 9 | COc1ccc2c(c1)c(C=C1Oc3cc(O)cc(O)c3C1=O)c(C)n2CCCCN1CCOCC1 [Example 97, 4,6-dihydroxy-2-{[5-methoxy-2-methyl-1-(4-morpholin-4-ylbutyl)-1H-indol-3-yl]methylene}-1-benzofuran-3(2H)-one] | – |
| 2.7 | 2.7 | 25 | 5.8 | 8 | COc1ccc2[nH]c(C)c(C=C3Oc4cc(O)cc(O)c4C3=O)c2c1 [Example 73, 4,6-dihydroxy-2-[(5-methoxy-2-methyl-1H-indol-3-yl)methylene]-1-benzofuran-3(2H)-one] | – |
| – | 0.6 | 4.65 | 4.5 | 28.5 | CNC(=O)Nc1ccc2c(c1)C(=O)/C(=C/c1c(-c3c(C)nn(C)c3C)[nH]c3ccc(OC)cc13)O2 [Compound 627, 1-[(2Z)-2-{[5-methoxy-2-(1,3,5-trimethyl-1H-pyrazol-4-yl)-1H-indol-3-yl]methylidene}-3-oxo-2,3-dihydro-1-benzofuran-5-yl]-3-methylurea] | – |
| 12 | 0.33 | 3.42 | 1.45 | 5 | CCn1c(C)c(/C=C2\Oc3ccc(NC(=O)Nc4ccc(C(=O)N(C)CCN(C)C)cc4)cc3C2=O)c2cc(OC)ccc21 [Compound 639, N-[2-(dimethylamino)ethyl]-4-[({(2Z)-2-[(1-ethyl-5-methoxy-2-methyl-1H-indol-3-yl)methylene]-3-oxo-2,3-dihydro-1-benzofuran-5-yl}carbamoyl)amino]-N-methylbenzamide] | – |
